# Test results as given in patent publication US8163778B2 (Hoffmann-LA Roche Inc., priority 2007, dated 2012).
# Target: T1, human liver FBPase (Homo sapiens, UniProt P09467)
# T1 construct: made in house; host or cells: E. coli
# T1 sequence (P09467 2-338 limits assumed): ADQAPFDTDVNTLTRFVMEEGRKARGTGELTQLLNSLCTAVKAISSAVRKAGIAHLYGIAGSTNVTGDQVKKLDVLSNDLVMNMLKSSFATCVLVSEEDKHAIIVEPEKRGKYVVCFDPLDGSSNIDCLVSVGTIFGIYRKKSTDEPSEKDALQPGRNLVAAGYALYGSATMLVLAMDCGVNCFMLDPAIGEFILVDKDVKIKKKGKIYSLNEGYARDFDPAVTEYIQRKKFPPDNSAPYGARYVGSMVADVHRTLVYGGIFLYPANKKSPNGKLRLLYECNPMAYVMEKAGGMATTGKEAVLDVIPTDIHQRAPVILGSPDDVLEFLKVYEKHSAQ
# Assay: FBPase assay (malachite green phosphate release)
# Type: biochemical
# Conditions: recombinant human liver FBPase, 50 μM fructose-1,6-bisphosphate
# Protocol: The following tests were carried out for evaluating the inhibitory activity of the compounds of the present invention against human liver FBPase (Swissprot Data base reference PO9467, entry F16P_HUMAN).
# Human liver FBPase cDNA (NM_000507) was purchased from Origene Technologies, Inc, subcloned in a vector for expression in E. Coli., and sequenced. Recombinant human liver FBPase (hlFBPase) was purified according to the following protocol that uses heat denaturation similarly to that described by El-Maghrabi et al. [El-Maghrabi, M. R. et al. “Isolation of a human liver fructose-1,6-bisphosphatase cDNA and expression of the protein in Escherichia coli.” J Biol Chem 268:9466-9472, 1993.]. Briefly, E. coli cells, transiently expressing very high levels of soluble and active human liver FBPase, were suspended in 20 mM Tris-HCl pH 7.5, 1 mM EDTA, 1 mM DTT and were lysed by French press. The soluble extract was heat denatured at 65° C. for 5 min, and insoluble, denatured proteins were removed by centrifugation. The extract was then applied to a BioRad Macro-Prep High Q column equilibrated with 20 mM Tris-HCl pH 7.5, 1 mM EDTA, 1 mM DTT and the flow-through (containing FBPase activity) was collected and applied to a BioRad Macro-Prep HS column equilibrated with 20 mM HEPES pH 7.2, 1 mM DTT. A gradient of increasing NaCl concentration was then applied to the HS column and fractions were collected. Fractions containing active FBPase were pooled and further purified by size exclusion chromatography on a Sephacryl S200 column equilibrated in 20 mM Tris-HCl pH 7.5, 150 mM NaCl, 1 mM EDTA, 1 mM DTT. Purity of the enzyme preparation was >90% as assessed by Mass spectrometry.
# Recombinant human liver FBPase (hlFBPase) activity was assayed through measuring the inorganic phosphate release that results from the hydrolysis of Fructose-1,6-bisphosphate by the enzyme. As described by Baykov A. A. et al. in [Baykov A. A et al., “Malachite Green procedure for orthophosphate determination and its use in alkaline phosphatase-based enzyme immunoassays”. Anal. Biochem., 171:266-270, 1988], inorganic phosphate can be readily quantified by spectrophotometry at 620 nm after complexation with ammonium molybdate/malachite green reagent. Enzymatic reaction was carried out with modifications of the procedure described by Wright S. W. et al. [Wright S. W. et al., “Anilinoquinazoline inhibitors of Fructose-1,6-bisphosphatase bind to a novel allosteric site: synthesis, in vitro characterization, and X-ray crystallography”. J. Med. Chem. 45:3865-3877, 2002]. Specifically, the reaction was carried out in 96 well plates in a final volume of 100 μl in the presence or in the absence of allosteric inhibitors. Reaction was started adding 25 ng of hlFBPase to the reaction mixture containing 50 mM HEPES-KOH buffer pH 7.2, 2 mM MgCl2, 2 mM EDTA, 1 mM DTT, 50 μM fructose-1,6-bisphosphate and 1% DMSO. After 50 minutes incubation at room temperature, the phosphate released was allowed to form a colored complex for 10 min by adding 150 μl of ammonium molybdate/malachite green reagent containing 0.03% malachite green, 0.2% ammonium molybdate, 0.05% Triton X-100 and 0.7 M H2SO4 in water that was stirred for 30 min at room temperature and filtered through 0.2 μm filter. Under these conditions, the assay was linear with time and able to detect FBPase inhibition after spectrophotometric read-out at 620 nm.
row,Structure (SMILES),IC50 [nM]
1,"CCOc1cc(NC(=O)NC)nc(NC(=O)NS(=O)(=O)c2cc(C)c(CCOC)s2)c1 [Compound 35, N-({4-Ethoxy-6-[(methylcarbamoyl)amino]pyridin-2-yl}carbamoyl)-5-(2-methoxyethyl)-4-methylthiophene-2-sulfonamide]",494
2,"Nc1cc(Br)cc(NC(=O)NS(=O)(=O)c2cccc(Cl)c2)n1 [Compound 28, N-[(6-Amino-4-bromopyridin-2-yl)carbamoyl]-3-chlorobenzenesulfonamide]",396
3,"COCCc1sc(S(=O)(=O)NC(=O)Nc2cc(C#N)cc(N)n2)cc1C [Compound 62, N-[(6-Amino-4-cyanopyridin-2-yl)carbamoyl]-5-(2-methoxyethyl)-4-methylthiophene-2-sulfonamide]",2120
4,"COC(=O)c1cc(C(F)(F)F)cc(NC(=O)NS(=O)(=O)c2cc(C)c(CCO)s2)n1 [Compound 105, Methyl-6-[({[5-(2-hydroxyethyl)-4-methyl-2-thienyl]sulfonyl}carbamoyl)amino]-4-(trifluoromethyl)pyridine-2-carboxylate]",2610
5,"CNC(=O)Nc1cc(C(N)=NO)cc(NC(=O)NS(=O)(=O)c2cc(C)c(CCOC)s2)n1 [Compound 107, N′-Hydroxy-2-[({[5-(2-methoxyethyl)-4-methyl-2-thienyl]sulfonyl}carbamoyl)amino]-6-[(methylcarbamoyl)amino]pyridine-4-carboximidamide]",2550
6,"COC(=O)c1cc(C(F)(F)F)cc(NC(=O)NS(=O)(=O)c2csc(C)c2)n1 [Compound 98, Methyl-6-({[(5-methyl-3-thienyl)sulfonyl]carbamoyl}amino)-4-(trifluoromethyl)pyridine-2-carboxylate]",2290
7,"COCCc1sc(S(=O)(=O)NC(=O)Nc2cc(Br)cc(NCc3ccc(OC)cc3OC)n2)cc1C [Compound 66, N-({4-Bromo-6-[(2,4-dimethoxybenzyl)amino]pyridin-2-yl}carbamoyl)-5-(2-methoxyethyl)-4-methylthiophene-2-sulfonamide]",2350
8,"COCCOc1ccc(S(=O)(=O)NC(=O)Nc2cc(Br)cc(N)n2)cc1C [Compound 57, N-[(6-Amino-4-bromopyridin-2-yl)carbamoyl]-4-(2-methoxyethoxy)-3-methylbenzenesulfonamide]",1770
9,"COCCc1sc(S(=O)(=O)NC(=O)Nc2cc(SC)cc(NCCCO)n2)cc1C [Compound 74, N-({6-[(3-Hydroxypropyl)amino]-4-(methylthio)pyridin-2-yl}carbamoyl)-5-(2-methoxyethyl)-4-methylthiophene-2-sulfonamide]",2260
10,"CNC(=O)Nc1cc(OC)cc(NC(=O)NS(=O)(=O)c2cc3cc(C)ccc3s2)n1 [Compound 7, N-({4-Methoxy-6-[(methylcarbamoyl)amino]pyridin-2-yl}carbamoyl)-5-methyl-1-benzothiophene-2-sulfonamide]",100
11,"CNC(=O)Nc1cc(OC)cc(NC(=O)NS(=O)(=O)c2cn(C)c3c(OC)cccc23)n1 [Compound 26, 7-Methoxy-N-({4-methoxy-6-[(methylcarbamoyl)amino]pyridin-2-yl}carbamoyl)-1-methyl-1H-indole-3-sulfonamide]",312
12,"CNC(=S)Nc1cc(OC)cc(NC(=O)NS(=O)(=O)c2cc(C)c(CCOC)s2)n1 [Compound 18, 5-(2-Methoxyethyl)-N-[(4-methoxy-6-{[(methylamino)carbonothioyl]amino}pyridin-2-yl)carbamoyl]-4-methylthiophene-2-sulfonamide]",185
13,"COCCc1sc(S(=O)(=O)NC(=O)Nc2cc(C(N)=NO)cc(N)n2)cc1C [Compound 108, 2-Amino-N′-hydroxy-6-[({[5-(2-methoxyethyl)-4-methyl-2-thienyl]sulfonyl}carbamoyl)amino]pyridine-4-carboximidamide]",16000
14,"Cc1cc(S(=O)(=O)NC(=O)Nc2cc(C(F)(F)F)c(F)c(N)n2)sc1CCO [Compound 84, N-{[6-Amino-5-fluoro-4-(trifluoromethyl)pyridin-2-yl]carbamoyl}-5-(2-hydroxyethyl)-4-methylthiophene-2-sulfonamide]",429
15,"COCCc1sc(S(=O)(=O)NC(=O)Nc2cc(Br)cc(NCC(F)F)n2)cc1C [Compound 19, N-({4-Bromo-6-[(2,2-difluoroethyl)amino]pyridin-2-yl}carbamoyl)-5-(2-methoxyethyl)-4-methylthiophene-2-sulfonamide]",201
16,"CNC(=O)Nc1cc(C(=O)NC)cc(NC(=O)NS(=O)(=O)c2cc(C)c(CCOC)s2)n1 [Compound 103, 2-[({[5-(2-Methoxyethyl)-4-methyl-2-thienyl]sulfonyl}carbamoyl)amino]-N-methyl-6-[(methylcarbamoyl)amino]isonicotinamide]",5700
17,"COCCc1sc(S(=O)(=O)NC(=O)Nc2cc(SC)cc(C)n2)cc1C [Compound 86, 5-(2-Methoxyethyl)-4-methyl-N-{[6-methyl-4-(methylthio)pyridin-2-yl]carbamoyl}thiophene-2-sulfonamide]",1780
18,"COCCc1sc(S(=O)(=O)NC(=O)Nc2cc(OC)cc(C(N)=O)n2)cc1C [Compound 119, 6-[({[5-(2-Methoxyethyl)-4-methyl-2-thienyl]sulfonyl}carbamoyl)amino]-4-(methoxy)pyridine-2-carboxamide]",4800
19,"CNC(=O)Nc1cc(SC)cc(NC(=O)NS(=O)(=O)c2cc(C)c(CCOC)s2)n1 [Compound 14, 5-(2-Methoxyethyl)-4-methyl-N-({6-[(methylcarbamoyl)amino]-4-(methylthio)pyridin-2-yl}carbamoyl)thiophene-2-sulfonamide]",167
20,"COCCc1sc(S(=O)(=O)NC(=O)Nc2cc(C(F)(F)F)cc(N)n2)cc1C [Compound 85, N-{[6-Amino-4-(trifluoromethyl)pyridin-2-yl]carbamoyl}-5-(2-methoxyethyl)-4-methylthiophene-2-sulfonamide]",756
21,COCCc1sc(S(=O)(=O)NC(=O)Nc2cc(OC)cc(-c3noc(C)n3)n2)cc1C [Compound 116],1480
22,"COc1cccc2c(S(=O)(=O)NC(=O)Nc3cc(SC)cc(N)n3)cn(C)c12 [Compound 53, N-{[6-Amino-4-(methylthio)pyridin-2-yl]carbamoyl}-7-methoxy-1-methyl-1H-indole-3-sulfonamide]",1480
23,"COCCc1sc(S(=O)(=O)NC(=O)Nc2cc(-c3noc(C)n3)cc(N)n2)cc1C [Compound 110, N-{[6-Amino-4-(5-methyl-1,2,4-oxadiazol-3-yl)pyridin-2-yl]carbamoyl}-5-(2-methoxyethyl)-4-methylthiophene-2-sulfonamide]",16400
24,"O=C(Nc1cc(Br)cc(NC(=O)NS(=O)(=O)c2cccc(Cl)c2)n1)NS(=O)(=O)c1cccc(Cl)c1 [Compound 67, N,N′-[(4-Bromopyridine-2,6-diyl)bis(iminocarbonyl)]bis(3-chlorobenzenesulfonamide)]",2510
25,"COCCc1sc(S(=O)(=O)NC(=O)Nc2cc(OC)cc(NC(=O)OC)n2)cc1C [Compound 61, Methyl-{4-methoxy-6-[({[5-(2-methoxyethyl)-4-methyl-2-thienyl]sulfonyl}carbamoyl)amino]pyridin-2-yl}carbamate]",2070
26,"Nc1cc(Br)cc(NC(=O)NS(=O)(=O)c2coc3ccccc23)n1 [Compound 82, N-[(6-Amino-4-bromopyridin-2-yl)carbamoyl]-1-benzofuran-3-sulfonamide]",1870
